Patent publication US20260217711A1, “TRIAZOLOPYRIDINYL ETHER LINKED COMPOUNDS AS KINASE INHIBITORS” (Bristol-Myers Squibb Company, priority 2023, published 2026)

Test system: MLKL phosphorylation (pMLKL) in HT29-L23 cells
Test: MLKL Phosphorylation High-Content Assay
Format: cell-based
Conditions: Homo sapiens, 6 h, necroptosis induced with human TNFα, SMAC mimetic and Z-VAD, read-out: LE pMLKL HC IC50
Summary of the method: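 HT29-L23 cells incubated 6 h at 37° C before detection of phospho-MLKL by immunostaining with anti-phospho-MLKL antibody (1:1000 in PBS/0.1% BSA, overnight at 4° C). Readout by high-content imaging with compartmental image analysis.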

In the case of `Nc1nc2cc(-c3ccc(Cl)c(OCCC(F)C(O)c4ccc(F)cc4)c3F)ccn2n1` (single isomer, unassigned) [Example 82, 4-(3-(2-amino-[1,2,4]triazolo[1,5-a]pyridin-7-yl)-6-chloro-2-fluorophenoxy)-2-fluoro-1-(4-fluorophenyl)butan-1-ol], the IC50 is reported as 26 nM.

Same assay, conditions: necroptosis induced with human TNFα, SMAC mimetic and Z-VAD, 6 h, read-out: LE pMLKL HC IC50

Going from `Nc1nc2cc(-c3ccc(Cl)c(OCCC(F)C(O)c4ccc(F)cc4)c3F)ccn2n1` (single isomer, unassigned) [Example 83, 4-(3-(2-amino-[1,2,4]triazolo[1,5-a]pyridin-7-yl)-6-chloro-2-fluorophenoxy)-2-fluoro-1-(4-fluorophenyl)butan-1-ol] to `Nc1nc2cc(-c3ccc(F)c(OCCC(F)C(O)c4ccc(F)cc4)c3F)ccn2n1` (single isomer, unassigned) [Example 102, 4-(3-(2-amino-[1,2,4]triazolo[1,5-a]pyridin-7-yl)-2,6-difluorophenoxy)-2-fluoro-1-(4-fluorophenyl)butan-1-ol], the IC50 falls from 26 nM to 3 nM (8.7-fold).

First: Nc1nc2cc(-c3cccc(OCCC(F)C(O)c4ccc(F)cc4)c3F)ccn2n1 (single isomer, unassigned) [Example 84, 4-(3-(2-amino-[1,2,4]triazolo[1,5-a]pyridin-7-yl)-2-fluorophenoxy)-2-fluoro-1-(4-fluorophenyl)butan-1-ol]
Second: Nc1nc2cc(-c3ccc(Cl)c(OCCC(F)C(O)c4ccc(F)cc4)c3F)ccn2n1 (single isomer, unassigned) [Example 98, 4-(3-(2-amino-[1,2,4]triazolo[1,5-a]pyridin-7-yl)-6-chloro-2-fluorophenoxy)-2-fluoro-1-(4-fluorophenyl)butan-1-ol]
The IC50 of the first is 1.6-fold higher: 3.2 nM for the first, 2 nM for the second. The second is the more potent here.

Compared with `Nc1nc2cc(-c3cccc(OCCC(F)C(O)c4ccc(F)cc4)c3F)ccn2n1` (single isomer, unassigned) [Example 85, 4-(3-(2-amino-[1,2,4]triazolo[1,5-a]pyridin-7-yl)-2-fluorophenoxy)-2-fluoro-1-(4-fluorophenyl)butan-1-ol], `Nc1nc2cc(-c3ccc(Cl)c(OCCC(F)C(O)c4ccc(F)cc4)c3F)ccn2n1` (single isomer, unassigned) [Example 99, 4-(3-(2-amino-[1,2,4]triazolo[1,5-a]pyridin-7-yl)-6-chloro-2-fluorophenoxy)-2-fluoro-1-(4-fluorophenyl)butan-1-ol] is 17-fold higher in IC50: 0.9 nM for the first, 15 nM for the second. The first is the more potent here.

Compared with `Nc1nc2cc(-c3cccc(OCCC(F)C(O)c4ccc(F)cc4)c3F)ccn2n1` (single isomer, unassigned) [Example 86, 4-(3-(2-amino-[1,2,4]triazolo[1,5-a]pyridin-7-yl)-2-fluorophenoxy)-2-fluoro-1-(4-fluorophenyl)butan-1-ol], `Nc1nc2cc(-c3ccc(Cl)c(OCCC(F)C(O)c4ccc(F)cc4)c3F)ccn2n1` (single isomer, unassigned) [Example 100, 4-(3-(2-amino-[1,2,4]triazolo[1,5-a]pyridin-7-yl)-6-chloro-2-fluorophenoxy)-2-fluoro-1-(4-fluorophenyl)butan-1-ol] is 2.8-fold lower in IC50: 17 nM for the first, 6 nM for the second.

First: Nc1nc2cc(-c3cccc(OCCC(F)C(O)c4ccc(F)cc4)c3F)ccn2n1 (single isomer, unassigned) [Example 87, 4-(3-(2-amino-[1,2,4]triazolo[1,5-a]pyridin-7-yl)-2-fluorophenoxy)-2-fluoro-1-(4-fluorophenyl)butan-1-ol]
Second: Nc1nc2cc(-c3ccc(Cl)c(OCCC(F)C(O)c4ccc(F)cc4)c3F)ccn2n1 (single isomer, unassigned) [Example 101, 4-(3-(2-amino-[1,2,4]triazolo[1,5-a]pyridin-7-yl)-6-chloro-2-fluorophenoxy)-2-fluoro-1-(4-fluorophenyl)butan-1-ol]
The IC50 of the first is 75-fold lower: 0.4 nM for the first, 30 nM for the second. The first is the more potent here.

Compared with `CC(O)(c1ccc(F)cc1)C(F)CCOc1cccc(-c2ccn3nc(N)nc3c2)c1F` (single isomer, unassigned) [Example 88, 5-(3-(2-amino-[1,2,4]triazolo[1,5-a]pyridin-7-yl)-2-fluorophenoxy)-3-fluoro-2-(4-fluorophenyl)pentan-2-ol], `CC(O)(c1ccc(F)cc1)C(F)CCOc1c(F)ccc(-c2ccn3nc(N)nc3c2)c1F` (single isomer, unassigned) [Example 94, 5-(3-(2-amino-[1,2,4]triazolo[1,5-a]pyridin-7-yl)-2,6-difluorophenoxy)-3-fluoro-2-(4-fluorophenyl)pentan-2-ol] is 7.5-fold higher in IC50: 13 nM for the first, 97 nM for the second.

Compared with `CC(O)(c1ccc(F)cc1)C(F)CCOc1cccc(-c2ccn3nc(N)nc3c2)c1F` (single isomer, unassigned) [Example 89, 5-(3-(2-amino-[1,2,4]triazolo[1,5-a]pyridin-7-yl)-2-fluorophenoxy)-3-fluoro-2-(4-fluorophenyl)pentan-2-ol], `CC(O)(c1ccc(F)cc1)C(F)CCOc1c(F)ccc(-c2ccn3nc(N)nc3c2)c1F` (single isomer, unassigned) [Example 95, 5-(3-(2-amino-[1,2,4]triazolo[1,5-a]pyridin-7-yl)-2,6-difluorophenoxy)-3-fluoro-2-(4-fluorophenyl)pentan-2-ol] is 3.8-fold lower in IC50: 15 nM for the first, 4 nM for the second. The second is the more potent here.

First: CC(O)(c1ccc(F)cc1)C(F)CCOc1cccc(-c2ccn3nc(N)nc3c2)c1F (single isomer, unassigned) [Example 90, 5-(3-(2-amino-[1,2,4]triazolo[1,5-a]pyridin-7-yl)-2-fluorophenoxy)-3-fluoro-2-(4-fluorophenyl)pentan-2-ol]
Second: CC(O)(c1ccc(F)cc1)C(F)CCOc1c(F)ccc(-c2ccn3nc(N)nc3c2)c1F (single isomer, unassigned) [Example 96, 5-(3-(2-amino-[1,2,4]triazolo[1,5-a]pyridin-7-yl)-2,6-difluorophenoxy)-3-fluoro-2-(4-fluorophenyl)pentan-2-ol]
The IC50 of the first is 1.5-fold higher: 3 nM for the first, 2 nM for the second.

Compared with `CC(O)(c1ccc(F)cc1)C(F)CCOc1cccc(-c2ccn3nc(N)nc3c2)c1F` (single isomer, unassigned) [Example 91, 5-(3-(2-amino-[1,2,4]triazolo[1,5-a]pyridin-7-yl)-2-fluorophenoxy)-3-fluoro-2-(4-fluorophenyl)pentan-2-ol], `CC(O)(c1ccc(F)cc1)C(F)CCOc1c(F)ccc(-c2ccn3nc(N)nc3c2)c1F` (single isomer, unassigned) [Example 97, 5-(3-(2-amino-[1,2,4]triazolo[1,5-a]pyridin-7-yl)-2,6-difluorophenoxy)-3-fluoro-2-(4-fluorophenyl)pentan-2-ol] is 97-fold higher in IC50: 0.3 nM for the first, 29 nM for the second.

Going from `CC(O)(c1ccc(F)cc1)C(F)CCOc1cc(-c2ccn3nc(N)nc3c2)cc(F)c1F` (single isomer, unassigned) [Example 92, 5-(5-(2-amino-[1,2,4]triazolo[1,5-a]pyridin-7-yl)-2,3-difluorophenoxy)-3-fluoro-2-(4-fluorophenyl)pentan-2-ol] to `Nc1nc2cc(-c3ccc(F)c(OCCC(F)C(O)c4ccc(F)cc4)c3F)ccn2n1` (single isomer, unassigned) [Example 103, 4-(3-(2-amino-[1,2,4]triazolo-[1,5-a]pyridin-7-yl)-2,6-difluorophenoxy)-2-fluoro-1-(4-fluorophenyl)butan-1-ol], the IC50 falls from 1390 nM to 1.5 nM (930-fold).

Compared with `CC(O)(c1ccc(F)cc1)C(F)CCOc1cc(-c2ccn3nc(N)nc3c2)cc(F)c1F` (single isomer, unassigned) [Example 93, 5-(5-(2-amino-[1,2,4]triazolo[1,5-a]pyridin-7-yl)-2,3-difluorophenoxy)-3-fluoro-2-(4-fluorophenyl)pentan-2-ol], `Nc1nc2cc(-c3ccc(F)c(OCCC(F)C(O)c4ccc(F)cc4)c3F)ccn2n1` (single isomer, unassigned) [Example 104, 4-(3-(2-amino-[1,2,4]triazolo-[1,5-a]pyridin-7-yl)-2,6-difluorophenoxy)-2-fluoro-1-(4-fluorophenyl)butan-1-ol] is 50-fold lower in IC50: 140 nM for the first, 2.8 nM for the second. The second is the more potent here.

Compared with `Nc1nc2cc(-c3ccc(F)c(OCCC(F)C(O)c4ccc(F)cc4)c3F)ccn2n1` (single isomer, unassigned) [Example 105, 4-(3-(2-amino-[1,2,4]triazolo-[1,5-a]pyridin-7-yl)-2,6-difluorophenoxy)-2-fluoro-1-(4-fluorophenyl)butan-1-ol], `Cc1ccc(-c2ccn3nc(N)nc3c2)c(F)c1OCCC(F)C(O)c1ccc(F)cc1` (single isomer, unassigned) [Example 106, 4-(3-(2-amino-[1,2,4]triazolo[1,5-a]pyridin-7-yl)-2-fluoro-6-methylphenoxy)-2-fluoro-1-(4-fluorophenyl)butan-1-ol] is 4-fold lower in IC50: 12 nM for the first, 3 nM for the second. The second is the more potent here.

First: Cc1ccc(-c2ccn3nc(N)nc3c2)c(F)c1OCCC(F)C(O)c1ccc(F)cc1 (single isomer, unassigned) [Example 107, 4-(3-(2-amino-[1,2,4]triazolo[1,5-a]pyridin-7-yl)-2-fluoro-6-methylphenoxy)-2-fluoro-1-(4-fluorophenyl)butan-1-ol]
Second: Nc1nc2cc(-c3ccc(C(F)(F)F)c(OCCC(F)C(O)c4ccc(F)cc4)c3F)ccn2n1 (single isomer, unassigned) [Example 110, 4-(3-(2-amino-[1,2,4]triazolo[1,5-a]pyridin-7-yl)-2-fluoro-6-(trifluoromethyl)phenoxy)-2-fluoro-1-(4-fluorophenyl)butan-1-ol]
The IC50 of the first is 300-fold lower: 1.2 nM for the first, 360 nM for the second.

For `Cc1ccc(-c2ccn3nc(N)nc3c2)c(F)c1OCCC(F)C(O)c1ccc(F)cc1` (single isomer, unassigned) [Example 108, 4-(3-(2-amino-[1,2,4]triazolo[1,5-a]pyridin-7-yl)-2-fluoro-6-methylphenoxy)-2-fluoro-1-(4-fluorophenyl)butan-1-ol], the IC50 was 2.4 nM.
`Cc1ccc(-c2ccn3nc(N)nc3c2)c(F)c1OCCC(F)C(O)c1ccc(F)cc1` (single isomer, unassigned) [Example 109, 4-(3-(2-amino-[1,2,4]triazolo[1,5-a]pyridin-7-yl)-2-fluoro-6-methylphenoxy)-2-fluoro-1-(4-fluorophenyl)butan-1-ol] showed an IC50 of 0.1 nM.
